Reference: US20140249105A1, “NOVEL CERAMIDE ANALOGUES, PROCESSES FOR PREPARING SAME AND USES THEREOF” (Diverchim, priority 2011, published 2014)

Legend:
B16 melanocytes [1] = assay: Screening of anti-melanogenesis activity: melanin assay in B16 melanocytes stimulated with NDP-MSH; format: cell-based; conditions: 72 h
Description: This was carried out for compounds in solution in DMSO. The synthesis of melanin was measured in a model of B16 melanocytes stimulated with a stable derivative of α-MSH (natural hormone that stimulates melanogenesis: Melanocyte Stimulating Hormone): NDP-MSH ([Nle^4, DPhe7]-α-MSH).
(§1) Melanocytes were seeded on a 96-well plate and cultured for 24 h (37° C., 5% CO2, DMEM 1 g/L glucose without phenol red supplemented with glucose 3 g/L, L-glutamine 2 mM, penicillin 50 U/mL, streptomycin 50 μg/mL, fetal calf serum (FCS) 10%). […] Each experimental condition was carried out with n=3, apart from the controls carried out with n=6. The cells were then incubated for 72 h. Wells without cells received in parallel the same quantities of medium, supplemented or not with NDP-MSH and with or without the test compounds or the reference in order to quantify the background noise associated with the presence of the compounds.
At the end of 72 hours of incubation, the total melanin (intra- and extracellular) was quantified by measuring the absorbance of each sample at 405 nm (direct reading of the culture plates) against a standard range of melanin (melanin concentrations tested from 0.78 to 100 μg/mL). The background noise, measured in the wells without cells, was subtracted from the values measured so that only the effect connected with the production of melanin is taken into account, without including any interference connected with the presence of the compounds. The results were expressed in percentage of melanin relative to the control as well as in percentage inhibition.

B16 melanocytes [2] = assay: Viability of the cells, test of reduction of MTT; format: cell-based; conditions: 72 h
Description: as §1
At the end of the treatment, the cells were incubated in the presence of MTT (3-(4,5-dimethylthiazol-2-yl)-2,5-diphenyl tetrazolium bromide), the conversion of which to blue crystals of formazan is proportional to the activity of succinate dehydrogenase (mitochondrial enzyme). After disruption of the cells, the formazan was dissolved in DMSO medium and the optical density (OD), representative of the number of live cells and of their metabolic reactivity, was measured with a microplate reader at 540 nm (VERSAmax, Molecular Devices).

Structure (SMILES) | Normalized data inhibition (%) (B16 melanocytes [1]; 30 μM) | Normalized data inhibition (%) (B16 melanocytes [1]; 100 μM) | Viability (MTT) % stimulated control (B16 melanocytes [2]; 30 μM) | Viability (MTT) % stimulated control (B16 melanocytes [2]; 100 μM) | also measured
O=C(NC1CC1NC(=O)C(F)=CCCCCCCCCO)C(F)=CCCCCCCCCO (mixture of isomers) [c37] | 0% | 92% | 77 % stimulated control | 83 % stimulated control | 
O=C(NC1CCCC1NC(=O)C(F)=CCCCCCCCO)C(F)=CCCCCCCCO (mixture of isomers) [c46] | 0% | 75% | 77 % stimulated control | 68 % stimulated control | 
O=C(NC1CCCC1NC(=O)C(F)=CCCCCCCCOC1CCCCO1)C(F)=CCCCCCCCOC1CCCCO1 (mixture of isomers) [c66] | 119% | 118% | 96 % stimulated control | 93 % stimulated control | 
O=C(NC1CCC(NC(=O)C(F)=CCCCCCCCOC2CCCCO2)C1)C(F)=CCCCCCCCOC1CCCCO1 (mixture of isomers) [c69] | 116% | 112% | 87 % stimulated control | 78 % stimulated control | 
O=C(NC1CCCC1NC(=O)C(F)=CCCCCCCCCOC1CCCCO1)C(F)=CCCCCCCCCOC1CCCCO1 (mixture of isomers) [c71] | 93% | 109% | 116 % stimulated control | 104 % stimulated control | 
O=C(NC1CCC(NC(=O)C(F)=CCCCCCCCCOC2CCCCO2)C1)C(F)=CCCCCCCCCOC1CCCCO1 (mixture of isomers) [c74] | 110% | 111% | 78 % stimulated control | 81 % stimulated control | 
O=C(NC1CC1NC(=O)C(F)=CCCCCCOC1CCCCO1)C(F)=CCCCCCOC1CCCCO1 (mixture of isomers) [c108] | 73% | 105% | 75 % stimulated control | 80 % stimulated control | 
O=C(NC1CC1NC(=O)C(F)=CCCCCCOC1CCCCO1)C(F)=CCCCCCOC1CCCCO1 (racemic) [c110] | 104% | 120% | 83 % stimulated control | 0 % stimulated control | 
O=C(NC1CCC(NC(=O)C(F)=CCCCCCO)C1)C(F)=CCCCCCO (racemic) [c115] | 0% | 95% | 94 % stimulated control | 97 % stimulated control | 
O=c1cc(CO)occ1O [Kojic acid, reference compound] |  |  |  |  | inhibition at 25 µg/mL (B16 melanocytes [1]; Melanocyte, 25 μg/mL, read-out: Normalized data inhibition (%)): 59%; inhibition at 100 µg/mL (B16 melanocytes [1]; Melanocyte, 100 μg/mL, read-out: Normalized data inhibition (%)): 83%; inhibition at 400 µg/mL (B16 melanocytes [1]; Melanocyte, 400 μg/mL, read-out: Normalized data inhibition (%)): 93%; Viability (MTT) % stimulated control (B16 melanocytes [2]; 25 μg/mL): 103 % stimulated control; Viability (MTT) % stimulated control (B16 melanocytes [2]; 100 μg/mL): 99 % stimulated control; Viability (MTT) % stimulated control (B16 melanocytes [2]; 400 μg/mL): 96 % stimulated control
O=C(O)C(F)=CCCCCCCCCCCCCCCCO [Ref 2, 18-Hydroxy-octadec-2-en-2-fluoro-oic acid, reference compound] | 0% | 79% | 83 % stimulated control | 72 % stimulated control | 
O=C(NC1CCC(NC(=O)C(F)=CCCCCCOC2CCCCO2)C1)C(F)=CCCCCCOC1CCCCO1 (stereo not shown) [c8] | 86% | 115% | 86 % stimulated control | 77 % stimulated control | 
O=C(/C=C/CCCCCCCCO)N[C@H]1CCC[C@H]1NC(=O)/C=C/CCCCCCCCO [c15] | 2% | 73% | 76 % stimulated control | 74 % stimulated control | 
O=C(/C=C/CCCCCCCCCCCOC1CCCCO1)N[C@@H]1CC[C@H](NC(=O)/C=C/CCCCCCCCCCCOC2CCCCO2)C1 (stereo partly shown) [c30] |  |  | 76 % stimulated control |  | inhibition at 10 µM (B16 melanocytes [1]; Melanocyte, 10 μM, read-out: Normalized data inhibition (%)): 42%; inhibition at 30 µM (B16 melanocytes [1]; Melanocyte, 30 μM, read-out: Normalized data inhibition (%)): 71%; Viability (MTT) % stimulated control (B16 melanocytes [2]; 10 μM): 77 % stimulated control
O=C(N[C@H]1C[C@H]1NC(=O)C(F)=CCCCCCCCCCCCCCCCO)C(F)=CCCCCCCCCCCCCCCCO [c44] |  |  |  |  | Normalized data inhibition (%) (B16 melanocytes [1]; 1 μM): −11%; Normalized data inhibition (%) (B16 melanocytes [1]; 3 μM): 36%; Normalized data inhibition (%) (B16 melanocytes [1]; 10 μM): 69%; Viability (MTT) % stimulated control (B16 melanocytes [2]; 1 μM): 87 % stimulated control; Viability (MTT) % stimulated control (B16 melanocytes [2]; 3 μM): 88 % stimulated control; Viability (MTT) % stimulated control (B16 melanocytes [2]; 10 μM): 91 % stimulated control
O=C(N[C@H]1CCC[C@H]1NC(=O)/C(F)=C\CCCCCCCCO)/C(F)=C\CCCCCCCCO [c49] | 83% | 118% | 83 % stimulated control | 0 % stimulated control | 
O=C(N[C@@H]1CC[C@H](NC(=O)/C(F)=C/CCCCCCCCO)C1)/C(F)=C/CCCCCCCCO [c58] | 62% | 83% | 101 % stimulated control | 98 % stimulated control | 
O=C(NC1CCC(NC(=O)C(F)=CCCCCCCCCCCCO)C1)C(F)=CCCCCCCCCCCCO (stereo not shown) [c60] | 83% | 97% | 105 % stimulated control | 101 % stimulated control | 
O=C(N[C@H]1CCC[C@H]1NC(=O)/C(F)=C\CCCCCCCOC1CCCCO1)/C(F)=C\CCCCCCCOC1CCCCO1 (stereo partly shown) [c67] | 119% | 116% | 71 % stimulated control | 81 % stimulated control | 
O=C(N[C@@H]1CC[C@H](NC(=O)/C(F)=C/CCCCCCCOC2CCCCO2)C1)/C(F)=C/CCCCCCCOC1CCCCO1 (stereo partly shown) [c68] | 95% | 108% | 64 % stimulated control | 50 % stimulated control | 
O=C(N[C@@H]1CC[C@H](NC(=O)/C(F)=C\CCCCCCCOC2CCCCO2)C1)/C(F)=C\CCCCCCCOC1CCCCO1 (stereo partly shown) [c70] | 115% | 116% | 90 % stimulated control | 86 % stimulated control | 
O=C(N[C@H]1CCC[C@H]1NC(=O)/C(F)=C\CCCCCCCCOC1CCCCO1)/C(F)=C\CCCCCCCCOC1CCCCO1 (stereo partly shown) [c72] | 87% | 112% | 102 % stimulated control | 86 % stimulated control | 
O=C(N[C@@H]1CC[C@H](NC(=O)/C(F)=C\CCCCCOC2CCCCO2)C1)/C(F)=C\CCCCCOC1CCCCO1 (stereo partly shown) [c106] | 114% | 119% | 73 % stimulated control | 36 % stimulated control | 
O=C(NC1CCCC1NC(=O)C(F)=CCCCCCOC1CCCCO1)C(F)=CCCCCCOC1CCCCO1 (stereo not shown) [c107] | 66% | 120% | 95 % stimulated control | 26 % stimulated control | 
O=C(NC1CC1NC(=O)C(F)=CCCCCCOC1CCCCO1)C(F)=CCCCCCOC1CCCCO1 (stereo not shown) [c111] | 25% | 108% | 98 % stimulated control | 57 % stimulated control | 
O=C(NC1CCC(NC(=O)C(F)=CCCCCCO)C1)C(F)=CCCCCCO (stereo not shown) [c116] | 6% | 87% | 88 % stimulated control | 91 % stimulated control | 
CCCCCC=CCC=CCCCCCCCC(=O)NC1CC1NC(=O)CCCCCCCC=CCC=CCCCCC (stereo not shown) [c122] | 8% | 109% |  |  | 
CCCCCC=CCC=CCCCCCCCC(=O)NC1CCC(NC(=O)CCCCCCCC=CCC=CCCCCC)C1 (stereo not shown) [c135] | 0% | 90% |  |  | 
